pKi: −log10 of the molar value.
Tests used:
[1] = Evaluation of oral bioavailability by mouse bioassay; type: in vivo; conditions: 10 mg/kg oral, female Balb/C mice, serum 15 minutes after administration, read-out: Blood level
Experimental: A test compound was suspended or dissolved in a proper administration medium to give a concentration of 1 mg/ml. To 7 to 9 week old female Balb/C mice, 10 mg/kg of the resulting suspension or solution was orally administered. Fifteen minutes after the administration, blood was collected from the postcava under anesthesia with ether and the serum was separated from it. The concentration of each test compound was determined by estimating the serum level from a calibration curve obtained with VCAM-1/VLA-4 inhibitory activity as an index or measuring the concentration by using LC/MS/MS.

[2] = target: T1, integrins haα4 and β1 (VLA-4) expressed on CHO cells (Homo sapiens, UniProt P05556+P13612); experiment: In vitro Evaluation Test (1): binding of Eu3+-hVCAM-1 D1D7-IgG to CHO cells expressing integrins α4 and β1; conditions: inhibition of Eu3+-hVCAM-1 D1D7-IgG binding to CHO cells expressing α4β1; Ki calculated from IC50
T1 construct: expressed in transfected cells; host or cells: CHO cells
T1 sequence (P13612 34-1032): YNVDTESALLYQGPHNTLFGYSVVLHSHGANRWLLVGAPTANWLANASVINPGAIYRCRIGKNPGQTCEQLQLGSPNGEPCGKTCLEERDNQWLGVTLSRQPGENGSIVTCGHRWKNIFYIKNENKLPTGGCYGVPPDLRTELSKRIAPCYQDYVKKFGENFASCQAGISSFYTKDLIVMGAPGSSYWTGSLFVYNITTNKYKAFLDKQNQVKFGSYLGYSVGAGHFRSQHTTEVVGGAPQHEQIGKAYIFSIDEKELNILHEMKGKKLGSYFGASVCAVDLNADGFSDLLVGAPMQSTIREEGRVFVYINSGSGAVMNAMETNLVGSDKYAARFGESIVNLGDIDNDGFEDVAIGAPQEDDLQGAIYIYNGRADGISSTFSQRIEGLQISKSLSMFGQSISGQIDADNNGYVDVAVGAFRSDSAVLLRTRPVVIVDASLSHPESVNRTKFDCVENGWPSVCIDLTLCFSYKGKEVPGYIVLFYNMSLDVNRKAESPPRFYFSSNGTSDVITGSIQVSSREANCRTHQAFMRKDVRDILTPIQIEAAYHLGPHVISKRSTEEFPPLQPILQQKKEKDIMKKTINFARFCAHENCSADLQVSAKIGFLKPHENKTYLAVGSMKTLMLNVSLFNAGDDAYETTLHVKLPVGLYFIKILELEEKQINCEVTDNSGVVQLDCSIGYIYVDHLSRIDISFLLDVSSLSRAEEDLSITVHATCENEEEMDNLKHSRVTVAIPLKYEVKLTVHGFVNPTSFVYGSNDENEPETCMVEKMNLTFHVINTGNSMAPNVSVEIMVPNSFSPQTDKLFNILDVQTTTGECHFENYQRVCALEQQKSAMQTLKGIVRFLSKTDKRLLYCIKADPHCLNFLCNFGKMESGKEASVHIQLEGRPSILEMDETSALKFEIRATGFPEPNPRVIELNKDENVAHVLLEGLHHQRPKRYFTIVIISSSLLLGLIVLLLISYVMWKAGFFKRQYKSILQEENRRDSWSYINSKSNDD
T1 sequence (P05556 21-798): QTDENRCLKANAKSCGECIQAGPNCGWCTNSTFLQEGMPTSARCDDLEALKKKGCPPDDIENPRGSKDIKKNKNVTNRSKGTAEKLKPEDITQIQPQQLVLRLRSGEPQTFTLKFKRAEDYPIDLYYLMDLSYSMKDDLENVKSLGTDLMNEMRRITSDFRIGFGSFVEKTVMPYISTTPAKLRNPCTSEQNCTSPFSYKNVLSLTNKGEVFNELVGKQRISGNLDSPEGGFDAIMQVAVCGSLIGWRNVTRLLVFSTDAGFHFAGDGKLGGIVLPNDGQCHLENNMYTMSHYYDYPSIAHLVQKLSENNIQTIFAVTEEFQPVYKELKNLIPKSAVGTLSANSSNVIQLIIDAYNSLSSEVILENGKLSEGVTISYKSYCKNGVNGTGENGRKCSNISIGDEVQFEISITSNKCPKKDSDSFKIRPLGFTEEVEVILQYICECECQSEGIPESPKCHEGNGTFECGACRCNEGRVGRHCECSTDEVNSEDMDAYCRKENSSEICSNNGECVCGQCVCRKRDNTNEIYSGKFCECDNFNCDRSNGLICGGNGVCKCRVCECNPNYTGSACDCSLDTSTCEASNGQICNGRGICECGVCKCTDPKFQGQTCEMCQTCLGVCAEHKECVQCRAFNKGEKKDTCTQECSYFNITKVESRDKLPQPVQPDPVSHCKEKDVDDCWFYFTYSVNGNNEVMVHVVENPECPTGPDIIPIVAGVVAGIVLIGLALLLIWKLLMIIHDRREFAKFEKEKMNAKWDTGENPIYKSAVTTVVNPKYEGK
Outline: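 CHO cells transduced with human α4 and β1 were grown for 2 days. They were incubated 1 h at room temperature with Eu3+-hVCAM-1 D1D7-IgG (diluted to 2 nM before addition) and compound, with or without 6% HSA, in HEPES pH 7.5 containing Ca2+, Mg2+ and 4 mM Mn2+. Time-resolved fluorescence gave IC50; Ki used a Scatchard-derived Kd (0.06–20 nM).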

Row | Compound | concentration at 15 min [1] | pKi [2]
1 | Cc1ccc(F)cc1Nc1nc2ccc(CC(=O)N3C[C@@H](F)C[C@H]3CO[C@H]3CC[C@H](C(=O)O)CC3)c(F)c2o1 [Example 44, trans-4-(1-((2-(5-Fluoro-2-methylphenylamino)-7-fluoro-6-benzoxazolyl)acetyl)-(4S)-fluoro-(2S)-pyrrolidinylmethoxy)cyclohexanecarboxylic acid] | 912 ng/mL | 8.70
2 | O=C(Cc1ccc(Nc2nc3ccccc3o2)c(Cl)c1)N1C[C@@H](F)C[C@H]1CO[C@H]1CC[C@H](C(=O)O)CC1 [Example 49, trans-4-(1-(4-(2-benzoxazolyl)amino-3-chlorophenylacetyl)-(4S)-fluoro-(2S)-pyrrolidinylmethoxy)cyclohexanecarboxylic acid] | 508 ng/mL | 8.36
3 | O=C(Cc1cc(Cl)c(Nc2nc3ccccc3s2)cc1F)N1C[C@@H](F)C[C@H]1CO[C@H]1CC[C@H](C(=O)O)CC1 [Example 61, trans-4-(1-(4-(2-Benzothiazolyl)amino-5-chloro-2-fluorophenylacetyl)-(4S)-fluoro-(2S)-pyrrolidinylmethoxy)cyclohexanecarboxylic acid] | 3320 ng/mL | 8.64
4 | Cn1cc(-c2nc3ccc(CC(=O)N4C[C@@H](F)C[C@H]4CO[C@H]4CC[C@H](C(=O)O)CC4)cc3o2)c2cc(F)ccc21 [Example 100, trans-4-(1-((2-(5-Fluoro-1-methyl-3-indolyl)-6-benzoxazolyl)acetyl)-(4S)-fluoro-(2S)-pyrrolidinylmethoxy)cyclohexanecarboxylic acid] | 533 ng/mL | 8.26
5 | Cn1nc(C(=O)Nc2cc(F)c(CC(=O)N3C[C@@H](F)C[C@H]3CO[C@H]3CC[C@H](C(=O)O)CC3)cc2Cl)c2ccccc21 [Example 87, trans-4-(1-((5-Chloro-2-fluoro-4-((1-methyl-3-indazolylcarbonyl)amino)phenyl)acetyl)-(4S)-fluoro-(2S)-pyrrolidinylmethoxy)cyclohexanecarboxylic acid] | 15100 ng/mL | 8.04
6 | CCCO[C@H]1C[C@@H](CO[C@H]2CC[C@H](C(=O)O)CC2)N(C(=O)Cc2cc(Cl)c(NC(=O)c3cn(C)c4ccccc34)cc2F)C1 [Example 118, trans-4-(1-((5-Chloro-2-fluoro-4-(1-methyl-3-indolylcarbonylamino)phenyl)acetyl)-(4S)-propoxy-(2S)-pyrrolidinylmethoxy)cyclohexanecarboxylic acid] | 5730 ng/mL | 8.16
7 | COC[C@@H]1CC[C@@H](CO[C@H]2CC[C@H](C(=O)O)CC2)N1C(=O)Cc1cc(Cl)c(NC(=O)c2cn(C)c3ccccc23)cc1F [Example 141, trans-4-((1-(5-Chloro-2-fluoro-4-((1-methyl-3-indolyl)carbonylamino)phenyl)acetyl)-(5S)-methoxymethyl-(2S)-pyrrolidinylmethoxy)cyclohexanecarboxylic acid] | 8820 ng/mL | 7.68
8 | COC[C@H]1CC[C@@H](CO[C@H]2CC[C@@H](C(=O)O)CC2)N1C(=O)Cc1ccc2nc(Nc3cc(F)ccc3C)oc2c1F [Example 165, trans-4-(1-((2-(5-Fluoro-2-methylphenylamino)-7-fluoro-6-benzoxazolyl)acetyl)-(5R)-methoxymethyl-(2S)-pyrrolidinylmethoxy)cyclohexanecarboxylic acid] | 816 ng/mL | 8.54
9 | CO[C@@H]1C[C@@H](CO[C@H]2CC[C@H](C(=O)O)CC2)N(C(=O)Cc2cc(Cl)c(NC(=O)c3cn(C)c4ccccc34)cc2F)C1 [Example 115, trans4-(1-((5-chloro-2-fluoro-4-(1-methyl-3-indolylcarbonylamino)phenyl)acetyl)-(4R)-methoxy-(2S)-pyrrolidinylmethoxy)cyclohexanecarboxylic acid] | 888 ng/mL | 7.52

Reference: patent US7157487B2, “Vla-4 inhibitors” (Daiichi Pharmaceutical Co., Ltd., priority 2000, dated 2007)
